US6946458B2, “N-thiolated beta-lactams: novel antibacterial agents for methicillin-resistant Staphylococcus aureus” (University of South Florida, priority 1999, dated 2005)

Experiments:
[1] = tested on: MRSA USF652; assay: Kirby-Bauer agar disk diffusion; type: cell-based, Staphylococcus aureus; settings: for zone of growth inhibition, average diameter: 6-mm disks, 20 μg test compound; for The Zone of Inhibition: Table 6, 20 μg disk loading
Protocol: (§1) In this study, a selection of N-methylthio-substituted β-lactams are examined for antimicrobial activity by the Kirby-Bauer disk diffusion method on agar plates. A variety of common Gram-positive and Gram-negative bacteria are tested, including clinical isolates of methicillin-resistant Staphylococcus aureus (MRSA).
(§2) Compound susceptibility measurements are obtained from agar disk diffusion experiments using 6-mm air-dried disks impregnated with 20 μg of the test compound. The values correspond to the average diameters in mm (triplicate experiments) for the zone of growth inhibition observed after 24 h. Staphylococcus aureus (ATCC 25923) and β-lactamase-producing strains of methicillin-resistant Staphylococcus aureus (labeled as MRSA USF652-659) are obtained from Lakeland Regional Medical Center, Lakeland, Fla. Staphylococcus epidermidis, Staphylococcus simulans, Staphylococcus simulans, and Microcossus luteus are clinical isolates from University of South Florida Medical Clinic. Nieserria gonnorhoeae (β-lactamase positive) is obtained from the Tampa Branch State Laboratory. PenG is penicillin G (potassium salt). Table 1 provides the zones of growth inhibition that are observed after 24 hours using the lactams of FIGS. 1A-1I (designated A-I, respectively).
(§3) Of particular interest is the ability of these compounds to retain their effectiveness against penicillin-resistant strains of Staphylococcus aureus, a dangerous hospital-borne pathogen which is becoming difficult to treat with conventional antibiotic therapy. The lactams were screened for antibacterial activity by disk diffusion on agar plates, and the resulting zones of bacterial growth inhibition measured (see Table 3; each lactam is designated by Figure number).
(§4) Table 3: Growth inhibition zones obtained from agar disk diffusion experiments using 6-mm air-dried disks impregnated with 20 μg of the test compound. The values correspond to the average diameters in mm for the zone of growth inhibition observed after 24 hours. Staphylococcus aureus and β-lactamase-producing strains of methicillin-resistant Staphylococcus aureus (labeled MRSA USF652-659) are obtained from a clinical testing laboratory at Lakeland Regional Medical Center, Lakeland, Fla.
(§5) Those compounds were tested for bioactivity using the Kirby-Bauer test on agar plates.
(§6) Biological activity is enhanced against β-lactamase producing strains of methicillin-resistant Staphylococcus aureus (MRSA). With the lactam shown in FIG. 11A serving as a lead structure, a series of other C-4 substituted derivatives (FIGS. 11B-11I) were investigated herein. Table 5 lists microbiological data for β-lactams from Kirby-Bauer Disc Diffusion Test Results (with each lactam identified by Figure number).
(§7) Scheme I summarizes the synthesis of ester compounds 4. 4-Carboxy benzaldehyde (1) is coupled with the appropriate alcohol using DCC/DMAP, followed by reaction with p-anisidine, to give imines 2. Staudinger coupling of methoxyacetyl chloride with imine 2 gives N-aryl protected β-lactam 3. N-Dearylation of β-lactam 3 with ceric ammonium nitrate and methylthiolation with N-(methylthio)phthalimide affords N-methylthio β-lactams 4. These compounds are tested for antibacterial activity by the Kirby-Bauer method of disc diffusion on agar plates. [drawing 7]

[2] = tested on: MRSA USF653; assay: Kirby-Bauer agar disk diffusion; type: cell-based, Staphylococcus aureus; settings: for zone of growth inhibition, average diameter: 6-mm disks, 20 μg test compound; for The Zone of Inhibition: Table 6, 20 μg disk loading
Protocol: as §1, §2, §3, §4, §5, §6, §7

[3] = tested on: MRSA USF654; assay: Kirby-Bauer agar disk diffusion; type: cell-based, Staphylococcus aureus; settings: for zone of growth inhibition, average diameter: 6-mm disks, 20 μg test compound; for The Zone of Inhibition: Table 6, 20 μg disk loading
Protocol: as §1, §2, §3, §4, §5, §6, §7

[4] = tested on: MRSA USF655; assay: Kirby-Bauer agar disk diffusion; type: cell-based, Staphylococcus aureus; settings: for zone of growth inhibition, average diameter: 6-mm disks, 20 μg test compound; for The Zone of Inhibition: Table 6, 20 μg disk loading
Protocol: as §1, §2, §3, §4, §5, §6, §7

[5] = tested on: MRSA USF656; assay: Kirby-Bauer agar disk diffusion; type: cell-based, Staphylococcus aureus; settings: for zone of growth inhibition, average diameter: 6-mm disks, 20 μg test compound; for The Zone of Inhibition: Table 6, 20 μg disk loading
Protocol: as §1, §2, §3, §4, §5, §6, §7

[6] = tested on: MRSA USF657; assay: Kirby-Bauer agar disk diffusion; type: cell-based, Staphylococcus aureus; settings: for zone of growth inhibition, average diameter: 6-mm disks, 20 μg test compound; for The Zone of Inhibition: Table 6, 20 μg disk loading
Protocol: as §1, §2, §3, §4, §5, §6, §7

[7] = tested on: MRSA USF658; assay: Kirby-Bauer agar disk diffusion; type: cell-based, Staphylococcus aureus; settings: for zone of growth inhibition, average diameter: 6-mm disks, 20 μg test compound; for The Zone of Inhibition: Table 6, 20 μg disk loading
Protocol: as §1, §2, §3, §4, §5, §6, §7

[8] = tested on: MRSA USF659; assay: Kirby-Bauer agar disk diffusion; type: cell-based, Staphylococcus aureus; settings: for zone of growth inhibition, average diameter: 6-mm disks, 20 μg test compound; for The Zone of Inhibition: Table 6, 20 μg disk loading
Protocol: as §1, §2, §3, §4, §5, §6, §7

[9] = tested on: Micrococcus luteus; assay: Kirby-Bauer agar disk diffusion; type: cell-based; settings: 6-mm disks, 20 μg test compound
Protocol: as §1, §2, §3, §4

[10] = tested on: Staphylococcus aureus (ATCC 25923); assay: Kirby-Bauer agar disk diffusion; type: cell-based; settings: 6-mm disks, 20 μg test compound
Protocol: as §1, §2, §3, §4

[11] = tested on: Staphylococcus epidermidis; assay: Kirby-Bauer agar disk diffusion; type: cell-based; settings: 6-mm disks, 20 μg test compound
Protocol: as §1, §2, §3, §4

[12] = tested on: S. simulans (ATCC 11631); assay: Kirby-Bauer agar disk diffusion; type: cell-based, Staphylococcus simulans; settings: 6-mm disks, 20 μg test compound
Protocol: as §1, §2, §3, §4

[13] = tested on: S. saprophyticus (ATCC 3552); assay: Kirby-Bauer agar disk diffusion; type: cell-based, Staphylococcus saprophyticus; settings: 6-mm disks, 20 μg test compound
Protocol: as §1, §2, §3, §4

[14] = tested on: Staphylococcus strains including MRSA; assay: antibacterial activity screening, results stated in words; type: cell-based, Staphylococcus aureus; settings: for antimicrobial activity, in words: Example 2, all microorganisms tested
Excerpt: However, the N-alkylthio substituent is required, since reduction to the N—H analogue completely destroys the biological activity. […]
as §3
With the lactam of FIG. 6A serving as a lead structure, other C4-unsaturated derivatives (FIGS. 6B-6E) and C4-saturated analogues (FIGS. 6F-6H), were examined all of which also have activity against Staphylococcus strains including MRSA.
as §7

[15] = tested on: N. gonorrhoeae; assay: Kirby-Bauer agar disk diffusion; type: cell-based, Neisseria gonorrhoeae; settings: Table 1; 6-mm disks, 20 μg test compound, 24 h, triplicate; β-lactamase positive
Protocol: as §1, §2

[16] = Example 6, MRSA strains of Table 6

COC1C(=O)N(SC)C1C(C#Cc1ccccc1)OC(C)=O (mixture of isomers) [FIG. 3H]
zone of growth inhibition, average diameter ([1]; Table 3, 24 hours): 0 mm
zone of growth inhibition, average diameter ([2]; Table 3, 24 hours): 0 mm
zone of growth inhibition, average diameter ([3]; Table 3, 24 hours): 0 mm
zone of growth inhibition, average diameter ([4]; Table 3, 24 hours): 0 mm
zone of growth inhibition, average diameter ([5]; Table 3, 24 hours): 0 mm
zone of growth inhibition, average diameter ([6]; Table 3, 24 hours): 0 mm
zone of growth inhibition, average diameter ([7]; Table 3, 24 hours): 0 mm
zone of growth inhibition, average diameter ([8]; Table 3, 24 hours): 0 mm
zone of growth inhibition, average diameter ([9]; Table 3, 24 hours): 0 mm
zone of growth inhibition, average diameter ([10]; Table 3, 24 hours): 0 mm
zone of growth inhibition, average diameter ([11]; Table 3, 24 hours): 0 mm
zone of growth inhibition, average diameter ([12]; Table 3, 24 hours): 0 mm
zone of growth inhibition, average diameter ([13]; Table 3, 24 hours): 0 mm
antimicrobial activity, in words [14]: inactive

COC(=O)c1ccc(C2C(OC)C(=O)N2SC)cc1 (racemic) [4a]
The Zone of Inhibition [1]: 12 mm
The Zone of Inhibition [2]: 14 mm
The Zone of Inhibition [3]: 8 mm
The Zone of Inhibition [4]: 14 mm
The Zone of Inhibition [5]: 11 mm
The Zone of Inhibition [6]: 12 mm
The Zone of Inhibition [7]: 9 mm
The Zone of Inhibition [8]: 13 mm
antibacterial activity, in words [14, 16]: about similar activity

CCOC(=O)c1ccc(C2C(OC)C(=O)N2SC)cc1 (racemic) [4b]
The Zone of Inhibition [1]: 17 mm
The Zone of Inhibition [2]: 14 mm
The Zone of Inhibition [3]: 9 mm
The Zone of Inhibition [4]: 12 mm
The Zone of Inhibition [5]: 11 mm
The Zone of Inhibition [6]: 14 mm
The Zone of Inhibition [7]: 11 mm
The Zone of Inhibition [8]: 13 mm
antibacterial activity, in words [14, 16]: about similar activity

CCCCCOC(=O)c1ccc(C2C(OC)C(=O)N2SC)cc1 (racemic) [4c]
The Zone of Inhibition [1]: 17 mm
The Zone of Inhibition [2]: 13 mm
The Zone of Inhibition [3]: 11 mm
The Zone of Inhibition [4]: 13 mm
The Zone of Inhibition [5]: 14 mm
The Zone of Inhibition [6]: 14 mm
The Zone of Inhibition [7]: 12 mm
The Zone of Inhibition [8]: 12 mm
antibacterial activity, in words [14, 16]: about similar activity

CCCCCCCCCCOC(=O)c1ccc(C2C(OC)C(=O)N2SC)cc1 (racemic) [4e]
The Zone of Inhibition [1]: 0 mm
The Zone of Inhibition [2]: 0 mm
The Zone of Inhibition [3]: 0 mm
The Zone of Inhibition [4]: 0 mm
The Zone of Inhibition [5]: 0 mm
The Zone of Inhibition [6]: 0 mm
The Zone of Inhibition [7]: 0 mm
The Zone of Inhibition [8]: 0 mm
antibacterial activity, in words [14, 16]: no activity

COC1C(=O)N(SC)C1C#Cc1ccccc1 (racemic) [FIG. 6A]
antibacterial activity, in words ([14]; Example 3 SAR): inhibits the in vitro growth

COC1C(=O)N(SC)C1c1ccccc1 (racemic) [FIG. 6J]
antibacterial activity, in words ([14]; Example 3 SAR): highly active

COC1C(=O)N(SC)C1c1ccccc1Cl (racemic) [FIG. 7A]
antibacterial activity, in words ([14]; Example 3 SAR): most active analogue

COC(=O)c1ccc(C2C(OC)C(=O)N2SC)cc1 (racemic) [FIG. 7J]
antibacterial activity, in words ([14]; Example 3 SAR): showing antibacterial activity

CCCCCOC(=O)c1ccc(C2C(OC)C(=O)N2SC)cc1 (racemic) [FIG. 8C]
antibacterial activity, in words ([14]; Example 3 SAR): activity is maintained

CCCCCCCOC(=O)c1ccc(C2C(OC)C(=O)N2SC)cc1 (racemic) [FIG. 8D]
antibacterial activity, in words ([14]; Example 3 SAR): about half the activity of the pentyl analogues

CCCCCCCCCCOC(=O)c1ccc(C2C(OC)C(=O)N2SC)cc1 (racemic) [FIG. 8E]
antibacterial activity, in words ([14]; Example 3 SAR): totally devoid of activity

COC1C(=O)N(SC)C1C#Cc1ccccc1 (racemic) [Lactam A]
zone of growth inhibition, average diameter ([1]; Table 1, 24 h, triplicate): 31 mm
zone of growth inhibition, average diameter ([2]; Table 1, 24 h, triplicate): 30 mm
zone of growth inhibition, average diameter ([3]; Table 1, 24 h, triplicate): 28 mm
zone of growth inhibition, average diameter ([4]; Table 1, 24 h, triplicate): 29 mm
zone of growth inhibition, average diameter ([5]; Table 1, 24 h, triplicate): 30 mm
zone of growth inhibition, average diameter ([6]; Table 1, 24 h, triplicate): 30 mm
zone of growth inhibition, average diameter ([7]; Table 1, 24 h, triplicate): 27 mm
zone of growth inhibition, average diameter ([8]; Table 1, 24 h, triplicate): 25 mm
zone of growth inhibition, average diameter ([9]; Table 1, 24 h, triplicate): 23 mm
zone of growth inhibition, average diameter ([10]; Table 1, 24 h, triplicate): 27 mm
zone of growth inhibition, average diameter ([11]; Table 1, 24 h, triplicate): 30 mm
zone of growth inhibition, average diameter ([12]; Table 1, 24 h, triplicate): 21 mm
zone of growth inhibition, average diameter ([13]; Table 1, 24 h, triplicate): 22 mm
zone of growth inhibition, average diameter [15]: 13 mm

COC1C(=O)N2SC(c3ccccc3)=C(I)C12 (stereo not shown) [FIG. 2D]
zone of growth inhibition, average diameter ([1]; Table 3, 24 hours): 0 mm
zone of growth inhibition, average diameter ([2]; Table 3, 24 hours): 0 mm
zone of growth inhibition, average diameter ([3]; Table 3, 24 hours): 0 mm
zone of growth inhibition, average diameter ([4]; Table 3, 24 hours): 0 mm
zone of growth inhibition, average diameter ([5]; Table 3, 24 hours): 0 mm
zone of growth inhibition, average diameter ([6]; Table 3, 24 hours): 0 mm
zone of growth inhibition, average diameter ([7]; Table 3, 24 hours): 0 mm
zone of growth inhibition, average diameter ([8]; Table 3, 24 hours): 0 mm
zone of growth inhibition, average diameter ([9]; Table 3, 24 hours): 0 mm
zone of growth inhibition, average diameter ([10]; Table 3, 24 hours): 0 mm
zone of growth inhibition, average diameter ([11]; Table 3, 24 hours): 0 mm
zone of growth inhibition, average diameter ([12]; Table 3, 24 hours): 0 mm
zone of growth inhibition, average diameter ([13]; Table 3, 24 hours): 0 mm
antimicrobial activity, in words [14]: no antimicrobial activity
